Test results from the supplement of paper PMC11997997.

Assays:
[1] = test system: murine bone marrow-derived macrophages; assay: area under cytotoxicity dose-response curve (AUC (% cytotoxicity x dose, relative)); higher = more cytotoxic; details: duration: 6 days; dose range: 0.13-80 uM, 8 points
In short: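 Primary murine bone marrow-derived macrophages in opaque 384-well plates were exposed to an 8-point, 2.5-fold dilution series (final 80–0.13 μM) for 6 days at 37 °C in 5% CO2. Viability was read with Promega's CellTiter-Glo luminescence assay, and percent cytotoxicity was normalised to vehicle and positive control wells. Cytotoxicity is reported as the area under the dose–response curve, calculated in GraphPad Prism version 10.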

[2] = test system: Mycobacterium tuberculosis CDC1551 (intracellular, in murine BMDM); assay: area under intracellular growth-inhibition dose-response curve (AUC (% inhibition x dose, relative)); higher = more potent; details: duration: 6 days; dose range: 0.13-80 uM, 8 points
In short: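 Macrophages derived from primary murine bone marrow were infected for 1 h at multiplicity of infection 1 with luciferase-expressing M. tuberculosis CDC1551, then treated for 6 days at final concentrations of 80–0.13 μM. Bright-Glo luciferin signal, normalised to a reference drug control and the lowest-concentration wells, gave the growth readout. Area under the growth-inhibition dose–response curve was then calculated in GraphPad Prism.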

C/C(CC(=O)Nc1ccccc1C#N)=N\NC(=O)c1ccncc1
area under cytotoxicity dose-response curve [1]: 98.9
area under intracellular growth-inhibition dose-response curve [2]: 229

COc1ccc(OC)c(/C=N/NC(=O)c2ccncc2)c1
area under cytotoxicity dose-response curve [1]: 66.9
area under intracellular growth-inhibition dose-response curve [2]: 254

CCCCOc1ccc(C(=O)C2=C(O)C(=O)N(CCCOC)C2c2ccncc2)cc1 (centres undefined)
area under cytotoxicity dose-response curve [1]: 19.4
area under intracellular growth-inhibition dose-response curve [2]: 106

Cc1ccccc1OCC(=O)NC(=S)Nc1ccc(N2CCCC2)cc1
area under cytotoxicity dose-response curve [1]: 105
area under intracellular growth-inhibition dose-response curve [2]: 182

FC(F)(Cl)c1nnc2ccc(Cl)nn12
area under cytotoxicity dose-response curve [1]: 26.5
area under intracellular growth-inhibition dose-response curve [2]: 126

CC(NC(=O)c1ccccc1F)C12C[C@H]3C[C@@H](C1)C[C@@H](C2)C3 (some centres undefined)
area under cytotoxicity dose-response curve [1]: 18.2
area under intracellular growth-inhibition dose-response curve [2]: 234

C/C(CC(=O)Nc1cccc(C(F)(F)F)c1)=N\NC(=O)c1ccncc1
area under cytotoxicity dose-response curve [1]: < 0
area under intracellular growth-inhibition dose-response curve [2]: 212

CCCCN1CNC(=S)N(c2ccc(C(=O)OCC)cc2)C1
area under cytotoxicity dose-response curve [1]: < 0
area under intracellular growth-inhibition dose-response curve [2]: 270

O=C(COc1ccccc1)NCc1ccccc1
area under cytotoxicity dose-response curve [1]: 14.8
area under intracellular growth-inhibition dose-response curve [2]: 163

O=C(CCCOc1ccccc1)NNC(=O)c1ccncc1
area under cytotoxicity dose-response curve [1]: < 0
area under intracellular growth-inhibition dose-response curve [2]: 263

Cl.O=C(CCN1CCN(CCO)CC1)N1c2ccccc2Sc2ccc(C(F)(F)F)cc21
area under cytotoxicity dose-response curve [1]: 75
area under intracellular growth-inhibition dose-response curve [2]: 61.3

CCCCCC(=O)N1CCCC1
area under cytotoxicity dose-response curve [1]: 20.6
area under intracellular growth-inhibition dose-response curve [2]: 139

O=C(NN=C1CCCCCC1)c1ccncc1
area under cytotoxicity dose-response curve [1]: 11.3
area under intracellular growth-inhibition dose-response curve [2]: 273

CCN1/C(=C/c2ccc3cc(C)ccc3[n+]2CC)Sc2ccccc21.[I-]
area under cytotoxicity dose-response curve [1]: 176
area under intracellular growth-inhibition dose-response curve [2]: 144

COc1ccc(CCNC(=O)c2cc([N+](=O)[O-])cc([N+](=O)[O-])c2)cc1OC
area under cytotoxicity dose-response curve [1]: < 0
area under intracellular growth-inhibition dose-response curve [2]: 243

c1ccc2c(c1)-c1cccc3cncc-2c13
area under cytotoxicity dose-response curve [1]: 36.8
area under intracellular growth-inhibition dose-response curve [2]: 200

O=C(NN=C1C2CC3CC(C2)CC1C3)c1ccncc1
area under cytotoxicity dose-response curve [1]: 103
area under intracellular growth-inhibition dose-response curve [2]: 238

O=C(c1ccc2ccccc2c1)N1CCCC1
area under cytotoxicity dose-response curve [1]: 32.9
area under intracellular growth-inhibition dose-response curve [2]: 222

NC(=O)C[C@H](NC(=O)c1ccc(Cl)cc1)C(=O)OCc1ccccc1
area under cytotoxicity dose-response curve [1]: < 0
area under intracellular growth-inhibition dose-response curve [2]: 16.5

O=C(c1ccc(Cl)s1)N1CCN(c2ncccn2)CC1
area under cytotoxicity dose-response curve [1]: 31.4
area under intracellular growth-inhibition dose-response curve [2]: 86.8

CC(C(=O)NC1C(=O)N2C(C(=O)O)=C(CSc3nnnn3C)CSC12)n1cc(Cl)cn1 (centres undefined)
area under cytotoxicity dose-response curve [1]: 23.7
area under intracellular growth-inhibition dose-response curve [2]: 174

O=C(CSc1cccc[n+]1[O-])CSc1cccc[n+]1[O-]
area under cytotoxicity dose-response curve [1]: 9.55
area under intracellular growth-inhibition dose-response curve [2]: 29.1

Cc1ccc(C(=O)NCc2ccc(Cl)cc2)o1
area under cytotoxicity dose-response curve [1]: 15.1
area under intracellular growth-inhibition dose-response curve [2]: 263

COc1ccc2c(c1)c(CC(=O)OCC(=O)O)c(C)n2C(=O)c1ccc(Cl)cc1
area under cytotoxicity dose-response curve [1]: 47.6
area under intracellular growth-inhibition dose-response curve [2]: 117

CNc1ccc2oc(C[C@H]3O[C@@]4(CC[C@H]3C)O[C@H]([C@H](C)C(=O)c3ccc[nH]3)[C@H](C)C[C@H]4C)nc2c1C(=O)O
area under cytotoxicity dose-response curve [1]: 9.01
area under intracellular growth-inhibition dose-response curve [2]: 148

Cn1ccc(=Nc2ccc(NC(=O)c3ccc(/N=c4\ccn(C)c5ccc([N+](=O)[O-])cc45)cc3)cc2)cc1
area under cytotoxicity dose-response curve [1]: 108
area under intracellular growth-inhibition dose-response curve [2]: 260

COc1ccc(NS(=O)(=O)c2ccc(N3CCOCC3)c(N)c2)cc1
area under cytotoxicity dose-response curve [1]: < 0
area under intracellular growth-inhibition dose-response curve [2]: 34.5

CC(C)OC(=O)c1c2c(n3ccccc13)C(=O)c1ccccc1C2=O
area under cytotoxicity dose-response curve [1]: 36.2
area under intracellular growth-inhibition dose-response curve [2]: 209

CC1CCC(C(C)C)C(OC(=O)C[n+]2cc(-c3ccc(Cl)cc3)n3c2CCCCC3)C1.[Cl-] (centres undefined)
area under cytotoxicity dose-response curve [1]: 107
area under intracellular growth-inhibition dose-response curve [2]: 94.6

O=C(N/N=C/C=C/c1ccccc1[N+](=O)[O-])c1ccncc1
area under cytotoxicity dose-response curve [1]: 244
area under intracellular growth-inhibition dose-response curve [2]: 244

O=C(CSc1nc2ccccc2nc1N1CCOCC1)N1CCN(c2ccccc2)CC1
area under cytotoxicity dose-response curve [1]: 22.9
area under intracellular growth-inhibition dose-response curve [2]: 199

CCC(=O)N(C)CCc1cc2c(c(OC)c1/C=N/NC(=O)c1ccncc1)OCO2
area under cytotoxicity dose-response curve [1]: 48.4
area under intracellular growth-inhibition dose-response curve [2]: 127

CC(=O)/C=C(\C)Nc1ccccc1O
area under cytotoxicity dose-response curve [1]: 95
area under intracellular growth-inhibition dose-response curve [2]: 54.6

Cc1ccc(NC(=O)c2cc(S(=O)(=O)N3CCCCC3)ccc2N2CCOCC2)cc1S(=O)(=O)N(C)C
area under cytotoxicity dose-response curve [1]: 58.9
area under intracellular growth-inhibition dose-response curve [2]: < 0

COc1ccc(C)cc1-n1nnnc1SC(C)C(=O)NC1CCCC1 (centres undefined)
area under cytotoxicity dose-response curve [1]: < 0
area under intracellular growth-inhibition dose-response curve [2]: 44.8

Cc1nc(SCc2cccc(F)c2)c2oc3ccccc3c2n1
area under cytotoxicity dose-response curve [1]: < 0
area under intracellular growth-inhibition dose-response curve [2]: 186

CC(C)c1ccc(CNc2nc3nc4c(c(O)n3n2)CCC4)cc1
area under cytotoxicity dose-response curve [1]: < 0
area under intracellular growth-inhibition dose-response curve [2]: 163

O=C(COc1ccccc1)NC1C(=O)N2C(C(=O)O)=C(Cl)CSC12 (centres undefined)
area under cytotoxicity dose-response curve [1]: < 0
area under intracellular growth-inhibition dose-response curve [2]: 144

CC(=O)OCC1=C(C(=O)O)N2C(=O)[C@@H](NC(=O)CSc3ccncc3)[C@H]2SC1.[Na+]
area under cytotoxicity dose-response curve [1]: 52.5
area under intracellular growth-inhibition dose-response curve [2]: 114

CCC(=O)NC(=S)Nc1ccc(NC(=O)COc2ccccc2)cc1
area under cytotoxicity dose-response curve [1]: 69.1
area under intracellular growth-inhibition dose-response curve [2]: 201

O=C(Nc1ccc([N+](=O)[O-])cc1Cl)c1cc(Cl)ccc1O
area under cytotoxicity dose-response curve [1]: 108
area under intracellular growth-inhibition dose-response curve [2]: 151

CC1CCC(C(C)C)C(OC(=O)Cn2c(-c3ccccc3)[n+](C)c3ccccc32)C1.[Cl-] (centres undefined)
area under cytotoxicity dose-response curve [1]: 12.5
area under intracellular growth-inhibition dose-response curve [2]: 124

COc1ccc(CCNC(=S)Nc2ccccc2)cc1
area under cytotoxicity dose-response curve [1]: 78.8
area under intracellular growth-inhibition dose-response curve [2]: 134

O=C(Nc1ccc(C(=O)Oc2ccccc2)c(O)c1)c1ccco1
area under cytotoxicity dose-response curve [1]: 4.02
area under intracellular growth-inhibition dose-response curve [2]: 223

CO[C@@H]1[C@@H](OC(N)=O)[C@@H](O)C(Oc2ccc3c(O)c(NC(=O)c4ccc([O-])c(CC=C(C)C)c4)c(=O)oc3c2C)OC1(C)C.[Na+] (some centres undefined)
area under cytotoxicity dose-response curve [1]: 80.2
area under intracellular growth-inhibition dose-response curve [2]: 24.9

NC(=S)N/N=C1\CCOc2ccc(Cl)cc21
area under cytotoxicity dose-response curve [1]: 31.5
area under intracellular growth-inhibition dose-response curve [2]: 179

CC(C)Oc1ccc(/C=N/NC(N)=S)cc1
area under cytotoxicity dose-response curve [1]: 17.8
area under intracellular growth-inhibition dose-response curve [2]: 275

CC[N+](CC)(CC)CCCCOc1ccc2c(c1)C(=O)c1cc(OCCCC[N+](CC)(CC)CC)ccc1-2.[I-]
area under cytotoxicity dose-response curve [1]: 56.8
area under intracellular growth-inhibition dose-response curve [2]: 92.4

CCOc1ncccc1C(=O)Nc1cc2c(cc1Br)OCCO2
area under cytotoxicity dose-response curve [1]: 24.1
area under intracellular growth-inhibition dose-response curve [2]: 132

CCOC(=O)c1c(-c2ccccc2)oc2ccc(O)c(CN3CCCC3)c12
area under cytotoxicity dose-response curve [1]: < 0
area under intracellular growth-inhibition dose-response curve [2]: 278

COC(=O)Cc1ccc(NC(=S)Nc2ccc(N3CCOCC3)cc2)cc1
area under cytotoxicity dose-response curve [1]: 50.5
area under intracellular growth-inhibition dose-response curve [2]: 241

COc1ccc(/C(C)=N/NC(=O)c2ccncc2)cc1
area under cytotoxicity dose-response curve [1]: 151
area under intracellular growth-inhibition dose-response curve [2]: 229

Cc1cc(/C=N/NC(N)=S)c(C)n1-c1ccc(Br)cc1
area under cytotoxicity dose-response curve [1]: < 0
area under intracellular growth-inhibition dose-response curve [2]: 257

O=C(NCc1ccc2c(c1)OCO2)c1cccc(F)c1
area under cytotoxicity dose-response curve [1]: < 0
area under intracellular growth-inhibition dose-response curve [2]: 222

COc1cc(OC)c2c(OC)cccc2n1
area under cytotoxicity dose-response curve [1]: 101
area under intracellular growth-inhibition dose-response curve [2]: 92.3

CC1CCN(c2ccc(NC(=O)c3ccc([N+](=O)[O-])o3)cc2)CC1.Cl
area under cytotoxicity dose-response curve [1]: 90.4
area under intracellular growth-inhibition dose-response curve [2]: 56.1

Cc1cccc(-n2c(C)cc(/C=N/NC(N)=S)c2C)c1
area under cytotoxicity dose-response curve [1]: < 0
area under intracellular growth-inhibition dose-response curve [2]: 235

CCN(CC)C(=O)CSc1nnc2nnc3cc(Cl)ccc3n12
area under cytotoxicity dose-response curve [1]: 55.1
area under intracellular growth-inhibition dose-response curve [2]: 219

CC(=NNC(=O)c1ccncc1)c1cccc(Br)c1
area under cytotoxicity dose-response curve [1]: < 0
area under intracellular growth-inhibition dose-response curve [2]: 234

Cc1cccc(/C=N/NC(=O)c2ccncc2)n1
area under cytotoxicity dose-response curve [1]: 14
area under intracellular growth-inhibition dose-response curve [2]: 269

CCC(NC(=O)Nc1nnc(C(F)(F)F)s1)(C(F)(F)F)C(F)(F)F
area under cytotoxicity dose-response curve [1]: 14.5
area under intracellular growth-inhibition dose-response curve [2]: 143

Cc1cc(OCC(=O)N2CCCC2)ccc1Cl
area under cytotoxicity dose-response curve [1]: 55.1
area under intracellular growth-inhibition dose-response curve [2]: 220
